In patent US20210120789A1, “Genetically Modified Non-Human Animals” (Shanghai RAAS Blood Products Co., Ltd., priority 2019, published 2021):

Tests used:
[1] = test system: human protein C knockin and factor IX deficient double mutant mice (hproC+/+, F9−/−); assay: Hemophilia B model, tail transection bleeding time; assay type: in vivo, mouse; details: distal tail transected at 4 mm, injected into an orbital vein 5 min before transection, vs no factor injected
Method: (§1) For hemophilia A model, 8 to 10-week-old mice including WT mice, factor VIII deficient mice (F8−/−) and human protein C knockin and factor VIII deficient double mutant mice (hproC+/+, F8−/−) anesthetized using 80 mg/kg sodium pentobarbital i.p. were placed on their abdomen with the tail immersed in 37° C. saline. The distal tail of mice was transected at 4 mm (severe injury), and the bleeding was arterial and venous. Human factor VIII was injected into an orbital vein 5 min before the tail was transected. Controls were also performed in which no Human Factor VIII was injected. For hemophilia B model, the same procedures were conducted except that factor IX deficient mice (F9−/−), human protein C knockin and factor IX deficient double mutant mice (hproC+/+, F9−/−), and human factor IX were used. Bleeding time was measured following the tail-tip transection and immediate immersion of the tail in 10 ml of saline at 37° C. Bleeding time was set at cessation of blood leakage for at least 1 min. After 15 min, the tail was removed from the saline and the bleeding time measure was ended.

[2] = test system: factor IX deficient mice (F9−/−); assay: Hemophilia B model, tail transection bleeding time; assay type: in vivo, mouse; details: distal tail transected at 4 mm, injected into an orbital vein 5 min before transection, vs no factor injected
Method: as §1

With “human factor IX: human blood clotting factor IX, injected before tail transection in the hemophilia B model” the bleeding time [1] was “correct the prolonged bleeding time” and the bleeding time [2] was “correct the prolonged bleeding time”.
